Source: the supplement of paper PMC10307832

Key:
Test in all cases: relative viability (nuclei count vs DMSO), 5 days (fraction); higher = more cells survive
Bortezomib + Decitabine = compound: CC(C)C[C@H](NC(=O)[C@H](Cc1ccccc1)NC(=O)c1cnccn1)B(O)O [Bortezomib] + Nc1ncn([C@H]2C[C@H](O)[C@@H](CO)O2)c(=O)n1 [Decitabine] (partner 2 µM)
Outline: (§1)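 Lung cancer cell lines were pin-tool dosed in 1536-well plates on the day after seeding, with either a lone drug or a fixed anchor-drug dose plus five library-drug doses (not always all listed) in √10 steps. Nuclei were counted on 4× images after 5 days. Relative viability is the ratio of treated-well to vehicle-well nuclei counts, with each value a median of duplicate plates.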

[1] = compound: CC1=CC(=NN1)NC2=CC(=NC(=N2)/C=C/C3=CC=CC=C3)N4CCN(CC4)C + Cc1nc(Nc2ncc(C(=O)Nc3c(C)cccc3Cl)s2)cc(N2CCN(CCO)CC2)n1 [Dasatinib] (partner 0.075 µM)
Outline: as §1

Obatoclax + Foretinib = compound: COC1=CC(c2cc3ccccc3[nH]2)=N/C1=C\c1[nH]c(C)cc1C [Obatoclax] + COc1cc2c(Oc3ccc(NC(=O)C4(C(=O)Nc5ccc(F)cc5)CC4)cc3F)ccnc2cc1OCCCN1CCOCC1 [Foretinib] (partner 0.25 µM)
Outline: as §1

Bortezomib + Navitoclax = compound: CC(C)C[C@H](NC(=O)[C@H](Cc1ccccc1)NC(=O)c1cnccn1)B(O)O [Bortezomib] + CC1(C)CCC(c2ccc(Cl)cc2)=C(CN2CCN(c3ccc(C(=O)NS(=O)(=O)c4ccc(N[C@H](CCN5CCOCC5)CSc5ccccc5)c(S(=O)(=O)C(F)(F)F)c4)cc3)CC2)C1 [Navitoclax] (partner 0.5 µM)
Outline: as §1

Cell Line	relative viability (Bortezomib + Decitabine; first compound 0.0002 µM)	relative viability (Bortezomib + Decitabine; first compound 0.000632 µM)	relative viability (Bortezomib + Decitabine; first compound 0.002 µM)	relative viability (Bortezomib + Decitabine; first compound 0.006325 µM)	relative viability (Bortezomib + Decitabine; first compound 0.02 µM)	relative viability ([1]; first compound 0.08 µM)	relative viability ([1]; first compound 0.253 µM)	relative viability ([1]; first compound 0.8 µM)	relative viability ([1]; first compound 2.53 µM)	relative viability ([1]; first compound 8 µM)	relative viability (Obatoclax + Foretinib; first compound 0.01 µM)	relative viability (Obatoclax + Foretinib; first compound 0.03162 µM)	relative viability (Obatoclax + Foretinib; first compound 0.1 µM)	relative viability (Obatoclax + Foretinib; first compound 0.3162 µM)	relative viability (Obatoclax + Foretinib; first compound 1 µM)	relative viability (Bortezomib + Navitoclax; first compound 0.0002 µM)	relative viability (Bortezomib + Navitoclax; first compound 0.000632 µM)	relative viability (Bortezomib + Navitoclax; first compound 0.002 µM)	relative viability (Bortezomib + Navitoclax; first compound 0.006325 µM)	relative viability (Bortezomib + Navitoclax; first compound 0.02 µM)
NCI-H520	0.43	0.549	0.424	0.174	0.155	0.202	0.194	0.166	0.143	0.118	0.825	0.727	0.944	0.668	0.609	1	0.959	0.347	0.145	0.157
NCI-H2347	0.631	0.601	0.648	0.466	0.429	0.297	0.305	0.336	0.293	0.24	1.09	0.831	0.918	–	1.04	0.513	0.847	0.651	0.197	0.193
NCI-H441	0.235	0.274	0.207	0.119	0.109	0.526	0.443	0.61	0.159	0.117	0.877	0.925	1.05	0.639	0.612	0.4	0.612	0.31	0.17	0.143
NCI-H2405	0.716	0.692	0.545	0.212	0.181	0.227	0.216	0.206	0.165	0.109	1.09	1.06	–	1.07	1.13	0.769	–	0.134	0.0865	0.113
HCC-15	0.626	0.619	0.598	0.111	0.114	0.634	0.672	0.479	0.0991	0.0639	1.04	1.05	0.846	0.912	0.857	0.706	0.681	0.692	0.421	0.116
